Reference: patent US11236083B2, “Compounds and pharmaceutical compositions for modulating SGK activity, and methods thereof” (NEW ERA PHARMA, INC., priority 2016, dated 2022)
Where “and” joins values, the source holds several entries; their conditions need not be identical. Equal values may be shown once. Read-outs that look alike come from different tables or passages of the source.

Legend:
[1] = target: T1, hERG channels (Homo sapiens, UniProt Q12809); assay: Qpatch hERG assay (automated patch clamp, whole-cell tail current); format: cell-based; conditions: for IC50: CHO cell line stably expressing hERG channels, highest test concentration 30 μM
T1 construct: expressed in transfected cells
T1 sequence (Q12809 whole entry): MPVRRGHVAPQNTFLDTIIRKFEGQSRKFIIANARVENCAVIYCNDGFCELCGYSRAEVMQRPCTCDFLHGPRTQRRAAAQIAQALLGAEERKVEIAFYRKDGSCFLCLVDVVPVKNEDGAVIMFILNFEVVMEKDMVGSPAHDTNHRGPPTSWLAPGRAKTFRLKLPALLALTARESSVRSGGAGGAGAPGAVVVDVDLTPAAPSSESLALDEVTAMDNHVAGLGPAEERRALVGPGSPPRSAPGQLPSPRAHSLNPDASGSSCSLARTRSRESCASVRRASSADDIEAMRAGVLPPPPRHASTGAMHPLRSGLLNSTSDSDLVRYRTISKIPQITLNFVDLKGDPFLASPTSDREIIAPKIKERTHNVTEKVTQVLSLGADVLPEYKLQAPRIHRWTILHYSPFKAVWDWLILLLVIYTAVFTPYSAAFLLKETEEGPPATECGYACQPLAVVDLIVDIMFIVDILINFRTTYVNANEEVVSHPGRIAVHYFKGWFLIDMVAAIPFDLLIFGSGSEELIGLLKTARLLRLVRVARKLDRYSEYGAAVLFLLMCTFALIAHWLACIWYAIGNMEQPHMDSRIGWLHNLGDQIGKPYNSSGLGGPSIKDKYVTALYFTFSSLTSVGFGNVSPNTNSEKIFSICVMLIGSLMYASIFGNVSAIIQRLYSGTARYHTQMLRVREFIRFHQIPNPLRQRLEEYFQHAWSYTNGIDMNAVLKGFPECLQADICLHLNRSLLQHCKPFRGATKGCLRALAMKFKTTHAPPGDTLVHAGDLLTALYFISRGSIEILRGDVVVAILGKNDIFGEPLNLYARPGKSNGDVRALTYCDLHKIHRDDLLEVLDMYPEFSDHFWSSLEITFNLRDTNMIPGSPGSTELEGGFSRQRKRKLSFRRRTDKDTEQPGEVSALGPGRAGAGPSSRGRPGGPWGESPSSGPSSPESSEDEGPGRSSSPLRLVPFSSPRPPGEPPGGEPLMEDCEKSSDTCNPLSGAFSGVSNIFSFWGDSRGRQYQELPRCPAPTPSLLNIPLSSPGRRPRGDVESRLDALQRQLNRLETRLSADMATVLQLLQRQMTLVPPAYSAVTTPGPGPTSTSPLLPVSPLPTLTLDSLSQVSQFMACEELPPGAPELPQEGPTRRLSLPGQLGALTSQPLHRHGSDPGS
Method: • Assay platform & method: Automated patch clamp (Qpatch-48) • Cell source: CHO cell line stably expressing hERG channels • Measured parameter: Whole-cell tail current of hERG channels • Test concentration: 6 concentrations (30, 10, 3, 1, 0.3, 0.1 μM)
Example: Qpatch hERG Assay

[2] = target: T2, Sgk1 (Homo sapiens, UniProt O00141); assay: Enzyme based assay for SGK1 (biotinylated Akt Substrates-2 peptide, Eu3+ Cryptate/XL665 detection); format: biochemical
T2 sequence (O00141 1-431): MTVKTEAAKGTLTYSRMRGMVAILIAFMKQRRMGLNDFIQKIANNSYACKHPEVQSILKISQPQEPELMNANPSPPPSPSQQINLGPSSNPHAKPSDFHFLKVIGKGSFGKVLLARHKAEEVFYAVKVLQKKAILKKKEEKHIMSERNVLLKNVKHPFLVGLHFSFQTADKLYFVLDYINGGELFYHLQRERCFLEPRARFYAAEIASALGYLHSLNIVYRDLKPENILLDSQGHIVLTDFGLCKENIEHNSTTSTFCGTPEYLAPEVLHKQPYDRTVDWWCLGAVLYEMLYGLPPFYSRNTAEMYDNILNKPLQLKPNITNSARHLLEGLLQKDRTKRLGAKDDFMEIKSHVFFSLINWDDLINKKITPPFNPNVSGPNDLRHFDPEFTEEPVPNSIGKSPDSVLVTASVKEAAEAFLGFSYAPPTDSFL
Method: (§1) 1. Enzyme Based Assays for SGK1, SGK2, SGK3, and Akt1
(§2) The kinase enzymatic reaction is carried out with a biotinylated Akt Substrates-2 peptide substrate. The phosphorylated substrate is then detected using a specific anti-phospho peptide antibody which is coupled with Eu^3+ Cryptate and XL665 conjugated with streptavidin.
(§3) Exemplary Assay Conditions
(§4) • Enzyme: ˜0.1 nM • Substrate: 0.2 μM • ATP: 50 μM and 1 mM • Mg^2+: 10 mM • Reaction time: 60 min with 50 μM ATP and 30 min with 1 mM ATP • SA-XL to Biotin: 1:10
(§5) Detailed Steps • 1. prepare the enzyme and substrate solution with the buffer from Cisbio • 2. add the enzyme and substrate solution to the diluted compound plate • 3. transfer 5 μL of compound, enzyme, and substrate mixture to an 384-well assay plate • 4. add 5 μL ATP (with Mg^2+) solution to initiate the reaction • 5. after certain time, add 10 μL of stop solution containing SA-XL and specific antibody • 6. read the plate after 2 h incubation at rt • 7. process the data using prizm software (Exemplary results are shown in FIG. 1.) 2. PK Studies Protocol

[3] = target: T3, Sgk3 (Homo sapiens, UniProt Q96BR1); assay: Enzyme based assay for SGK3; format: biochemical
T3 sequence (Q96BR1 1-496): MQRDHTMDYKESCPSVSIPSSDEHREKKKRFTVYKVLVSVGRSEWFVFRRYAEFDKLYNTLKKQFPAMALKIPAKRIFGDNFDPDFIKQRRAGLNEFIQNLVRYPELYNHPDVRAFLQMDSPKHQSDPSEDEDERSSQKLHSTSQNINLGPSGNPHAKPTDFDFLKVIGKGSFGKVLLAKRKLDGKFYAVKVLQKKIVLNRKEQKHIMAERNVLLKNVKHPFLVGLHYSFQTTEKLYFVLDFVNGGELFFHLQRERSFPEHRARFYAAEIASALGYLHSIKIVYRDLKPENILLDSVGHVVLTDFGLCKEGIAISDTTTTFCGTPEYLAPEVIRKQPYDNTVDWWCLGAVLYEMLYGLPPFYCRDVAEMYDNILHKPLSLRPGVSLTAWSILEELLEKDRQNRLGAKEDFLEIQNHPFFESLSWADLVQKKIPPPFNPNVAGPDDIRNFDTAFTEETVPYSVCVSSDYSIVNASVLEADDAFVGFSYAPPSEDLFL
Method: as §1, §2, §3, §4, §5

[4] = target: T4, Sgk2 (Homo sapiens, UniProt Q9HBY8); assay: Enzyme based assay for SGK2 (biotinylated Akt Substrates-2 peptide, Eu3+ Cryptate/XL665 detection); format: biochemical
T4 sequence (Q9HBY8 1-367): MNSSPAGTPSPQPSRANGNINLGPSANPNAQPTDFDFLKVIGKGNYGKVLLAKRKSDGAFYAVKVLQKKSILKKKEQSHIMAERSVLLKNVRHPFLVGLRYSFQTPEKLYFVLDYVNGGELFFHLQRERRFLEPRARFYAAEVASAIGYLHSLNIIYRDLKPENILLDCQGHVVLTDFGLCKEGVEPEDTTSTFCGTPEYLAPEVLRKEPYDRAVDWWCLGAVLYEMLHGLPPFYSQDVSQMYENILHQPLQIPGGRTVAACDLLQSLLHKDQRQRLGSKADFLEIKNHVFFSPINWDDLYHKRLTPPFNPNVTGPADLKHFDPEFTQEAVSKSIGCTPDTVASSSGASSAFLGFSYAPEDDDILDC
Method: as §1, §2, §3, §4, §5

[5] = tested on: HeLa; assay: HeLa cell testing (Table 2); format: cell-based; conditions: Homo sapiens; HeLa cells
[6] = tested on: 293T_O; assay: 293T_O cell testing (Table 2); format: cell-based; conditions: 293T_O cells
[7] = tested on: 293T; assay: 293T cell testing (Table 2); format: cell-based; conditions: Homo sapiens, HEK-293T; 293T cells
[8] = 50 μM ATP, read-out: Sgk1 (50 μM ATP)
[9] = 1 mM ATP, read-out: Sgk1 (1 mM ATP)
[10] = 50 μM ATP, read-out: Sgk2 (50 μM ATP)
[11] = 1 mM ATP, read-out: Sgk2 (1 mM ATP)

With COc1ccc(F)c(S(=O)(=O)Nc2ccc(-c3cc4[nH]nc(N)c4c(C)n3)cc2)c1 [D, N-(4-(3-amino-4-methyl-1H-pyrazolo[4,3-c]pyr-idin-6-yl)phenyl)-2-fluoro-5-methoxybenzenesulfonamide] the IC50 [1] was 12200 nM and the “Fitting curve Hillslope” value ([1]; Qpatch hERG concentration-response fit) was “Fitting curve Hillslope = 0.88”.
COc1ccc(F)c(S(=O)(=O)Nc2ccc(-c3cc(C)c4c(N)n[nH]c4n3)cc2)c1 [E, N-(4-(3-amino-4-methyl-1H-pyrazolo[3,4-b]-pyridin-6-yl)phenyl)-2-fluoro-5-methoxybenzenesulfonamide] showed an IC50 [1] of over 30000 nM.
In the case of COc1ccc(F)c(S(=O)(=O)Nc2ccc(-c3cc(CCC4CNCCO4)c4cn[nH]c4c3)cc2)c1 (stereo not shown), the IC50 [2, 8] is reported as 3.2 nM, the IC50 [2, 9] is reported as 11.6 nM and the IC50 [3] is reported as 150 nM. For the same compound, the IC50 [4, 10] was 4.1 nM and the IC50 [4, 11] was 8.2 nM.
For COc1ccc(F)c(S(=O)(=O)Nc2ccc(-c3cc(OC)c4c(N)n[nH]c4c3)cc2)c1 [drawing 108], the IC50 [2, 8] was 2.4 nM, the IC50 [2, 9] was 17.8 nM and the IC50 [3] was 40 nM. For the same compound, the IC50 [4, 10] was 5.1 nM and the IC50 [4, 11] was 8.9 nM.
COc1ccc(Cl)c(S(=O)(=O)Nc2ccc(-c3ccc4c(N)n[nH]c4n3)cc2)c1 showed an IC50 [5] of 21900 nM, an IC50 [6] of 45500 nM and an IC50 [2, 8] of 12.6 nM. The IC50 [2, 9] was 67.7 nM, the IC50 [4, 10] was 2.1 nM and the IC50 [4, 11] was 65.1 nM. The IC50 [7] was 60700 nM.
For Nc1n[nH]c2cc(-c3ccc(NS(=O)(=O)c4cc(Cl)ccc4F)cc3)ccc12, the IC50 [5] was 6600 nM, the IC50 [6] was 66800 nM and the IC50 [2, 8] was 3.2 nM. The IC50 [2, 9] was 113 nM, the IC50 [4, 10] was 6.7 nM and the IC50 [4, 11] was 68 nM. The IC50 [7] was 27600 nM.
COCCOc1cc(-c2ccc(NS(=O)(=O)c3cc(OC)ccc3F)cc2)cc2[nH]nc(N)c12 showed an IC50 [2, 8] of 27.7 nM, an IC50 [2, 9] of 92.8 nM and an IC50 [3] of 100 nM. It also gave an IC50 [4, 10] of 8 nM and an IC50 [4, 11] of 21.3 nM.
COc1ccc(F)c(S(=O)(=O)Nc2ccc(-c3cc(OC)c4c(N)n[nH]c4c3)cc2)c1 [C, N-(4-(3-amino-4-methoxy-1H-indazol-6-yl)-phenyl)-2-fluoro-5-methoxybenzenesulfonamide] was tested, and the IC50 [1] was over 30000 nM.
For O=S(=O)(Nc1ccc(-c2ccc3cn[nH]c3c2)cc1)c1cc(Cl)ccc1F, the IC50 [5] was 2470 nM, the IC50 [2, 8] was 124 nM and the IC50 [2, 9] was 352 nM. It also gave an IC50 [4, 10] of 32.1 nM and an IC50 [4, 11] of 664 nM.
In the case of COc1ccc(F)c(S(=O)(=O)Nc2ccc(-c3cc(C)c4c(N)n[nH]c4n3)cc2)c1 [drawing 111], the IC50 [2, 8] is reported as 2.8 nM, the IC50 [2, 9] is reported as 5.5 nM and the IC50 [3] is reported as 30 nM. The IC50 [4, 10] was 4.1 nM and the IC50 [4, 11] was 3.7 nM.
COc1ccc(F)c(S(=O)(=O)Nc2ccc(-c3cnc4cn[nH]c4c3)cc2)c1 gave an IC50 [5] of 13800 nM, an IC50 [6] of over 100000 nM and an IC50 [2, 9] of over 200 nM. For the same compound, the IC50 [4, 10] was 8.6 nM and 3.4 nM, the IC50 [4, 11] was over 200 nM and the IC50 [7] was 66500 nM.
For COc1ccc(F)c(S(=O)(=O)Nc2ccc(-c3cc4[nH]ncc4c(OCC4CNCCO4)n3)cc2)c1 (stereo not shown) [drawing 99], the IC50 [5] was 35800 nM, the IC50 [6] was 61200 nM and the IC50 [2, 8] was 3.1 nM. It also gave an IC50 [2, 9] of 9.7 nM, an IC50 [4, 10] of 0.8 nM and an IC50 [4, 11] of 5.6 nM. It also gave an IC50 [7] of 47900 nM.
Compound COc1ccc(F)c(S(=O)(=O)Nc2ccc(-c3cc(OCCO)c4c(N)n[nH]c4c3)cc2)c1 has an IC50 [2, 8] of 5.1 nM, an IC50 [2, 9] of 7.7 nM and an IC50 [3] of 90 nM. It also gave an IC50 [4, 10] of 7.9 nM and an IC50 [4, 11] of 6.2 nM.
